Assay results taken from the NIST ThermoML archive (doi:10.1016/j.jct.2011.01.016).

Assay: xn = mol fraction of the nth substance listed
Conditions: 100 kPa, Liquid; for viscosity: Concentric cylinders viscometry; for mass density: Vibrating tube method

CCCCCCCCCCCCCC[P+](CCCCCC)(CCCCCC)CCCCCC.CS(=O)(=O)[O-] [trihexyltetradecylphosphonium methanesulfonate] + O
x2 = 0.825
Conditions | mass density [kg/m3] | viscosity [mPa·s]
298.15 K | 935.1 | 126.55
303.15 K | 931.8 | 97.43
308.15 K | 928.4 | 76.18
313.15 K | 925.1 | 60.41
318.15 K | 921.7 | 48.54
323.15 K | 918.4 | 39.48
328.15 K | 915 | 32.49
333.15 K | 911.6 | 27.02
338.15 K | 908.2 | 22.69
343.15 K | 904.8 | 19.23
348.15 K | 901.4 | 16.45
353.15 K | 898 | 14.16
358.15 K | 894.6 | 12.28
363.15 K | 891.2 | 10.71

CCCCCCCCCCCCCC[P+](CCCCCC)(CCCCCC)CCCCCC.[Cl-] [trihexyl(tetradecyl)phosphonium chloride] + O
x2 = 0.818
Conditions | mass density [kg/m3] | viscosity [mPa·s]
298.15 K | 901.6 | 134.72
303.15 K | 898.3 | 103.12
308.15 K | 895 | 80.2
313.15 K | 891.7 | 63.3
318.15 K | 888.4 | 50.65
323.15 K | 885.1 | 41.05
328.15 K | 881.8 | 33.64
333.15 K | 878.5 | 27.88
338.15 K | 875.2 | 23.33
343.15 K | 871.9 | 19.71
348.15 K | 868.6 | 16.79
353.15 K | 865.3 | 14.4
358.15 K | 862 | 12.44
363.15 K | 858.6 | 10.81
